Results published in paper PMC10891534, “The Staphylococcus aureus ArlS Kinase Inhibitor Tilmicosin Has Potent Anti-Biofilm Activity in Both Static and Flow Conditions” (Microorganisms, 2024).

Target: ArlS histidine kinase (ArlSHK) (Staphylococcus aureus, UniProt Q9KJN3)
Assay: Kinase-Glo luminescent ATPase/kinase assay with purified ArlSHK, […] ATP, dose-response
Assay type: biochemical

Chain of ArlS histidine kinase (ArlSHK) (Q9KJN3 239-451): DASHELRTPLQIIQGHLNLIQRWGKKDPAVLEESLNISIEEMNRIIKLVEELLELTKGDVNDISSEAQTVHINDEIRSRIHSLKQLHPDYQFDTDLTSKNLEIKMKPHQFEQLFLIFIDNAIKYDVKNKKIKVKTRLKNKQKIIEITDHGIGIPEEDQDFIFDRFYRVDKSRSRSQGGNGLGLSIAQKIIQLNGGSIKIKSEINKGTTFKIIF

How did the IC50 turn out when `CC[C@H]1OC(=O)C[C@@H](O)[C@H](C)[C@@H](O[C@@H]2O[C@H](C)[C@@H](O)[C@H](N(C)C)[C@H]2O)[C@@H](CCN2C[C@H](C)C[C@H](C)C2)C[C@@H](C)C(=O)/C=C/C(C)=C/[C@@H]1CO[C@@H]1O[C@H](C)[C@@H](O)[C@@H](OC)[C@H]1OC` [tilmicosin] was run?
The IC50 was 1090 nM.
